Reference: BindingDB's records for PubMed 6248635 (Stanford University, 1980)
“And” between values parts separate entries of the source, which are not always exact repeats. Equal entries are not always repeated.

How the values were obtained:
Beta-arrestin-1 = Beta-arrestin-1 (Oryctolagus cuniculus, UniProt Q95223)
Opioid receptor delta 1 = Opioid receptor delta 1 (Bos taurus, UniProt F1N083)
[1] = target: Delta-type opioid receptor (Mus musculus, UniProt P32300)
Sequence of Delta-type opioid receptor (P32300 whole entry): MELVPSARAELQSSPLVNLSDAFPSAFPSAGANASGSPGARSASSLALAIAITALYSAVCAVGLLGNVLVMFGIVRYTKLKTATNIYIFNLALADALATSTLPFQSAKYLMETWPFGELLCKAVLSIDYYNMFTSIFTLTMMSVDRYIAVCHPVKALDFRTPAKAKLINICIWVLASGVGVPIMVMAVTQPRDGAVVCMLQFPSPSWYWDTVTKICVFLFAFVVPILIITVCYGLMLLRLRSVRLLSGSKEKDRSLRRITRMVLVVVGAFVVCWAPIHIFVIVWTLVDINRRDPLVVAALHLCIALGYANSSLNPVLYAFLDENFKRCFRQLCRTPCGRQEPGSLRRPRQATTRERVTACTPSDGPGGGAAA

Sequence of Beta-arrestin-1 (Q95223 whole entry): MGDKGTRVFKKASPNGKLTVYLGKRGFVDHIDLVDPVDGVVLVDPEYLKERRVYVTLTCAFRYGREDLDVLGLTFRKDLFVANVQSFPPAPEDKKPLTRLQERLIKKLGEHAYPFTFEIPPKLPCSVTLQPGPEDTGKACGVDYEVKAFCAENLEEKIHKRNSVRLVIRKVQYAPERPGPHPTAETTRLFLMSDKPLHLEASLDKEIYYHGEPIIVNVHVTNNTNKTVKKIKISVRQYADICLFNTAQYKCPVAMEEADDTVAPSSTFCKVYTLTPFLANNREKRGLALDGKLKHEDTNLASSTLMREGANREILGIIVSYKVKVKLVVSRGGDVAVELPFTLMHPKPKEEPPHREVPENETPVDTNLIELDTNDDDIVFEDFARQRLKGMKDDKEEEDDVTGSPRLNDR
Sequence of Opioid receptor delta 1 (F1N083 whole entry): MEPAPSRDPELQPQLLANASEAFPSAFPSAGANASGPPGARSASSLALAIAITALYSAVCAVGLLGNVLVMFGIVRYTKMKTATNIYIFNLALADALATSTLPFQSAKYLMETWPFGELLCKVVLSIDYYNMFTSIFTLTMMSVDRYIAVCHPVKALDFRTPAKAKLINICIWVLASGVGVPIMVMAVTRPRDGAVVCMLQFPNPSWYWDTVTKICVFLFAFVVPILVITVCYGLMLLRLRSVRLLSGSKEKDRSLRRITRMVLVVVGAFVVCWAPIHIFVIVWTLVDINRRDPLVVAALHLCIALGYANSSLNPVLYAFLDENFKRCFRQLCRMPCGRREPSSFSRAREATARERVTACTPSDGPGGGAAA

| Compound | Ki (Beta-arrestin-1) [nM] | Ki (Opioid receptor delta 1) | Ki [1] [nM] |
| --- | --- | --- | --- |
| C=CCN1CC[C@]23c4c5ccc(O)c4O[C@H]2C(=O)CC[C@@]3(O)[C@H]1C5 [[17-(2,3-3H-2-propenyl)]-4,5a-epoxy-3,14-dihydroxymorphinan-6-one] | 67.4 | – | – |
| CC(C)C[C@H](NC(=O)[C@H](Cc1ccccc1)NC(=O)CNC(=O)[C@@H](C)NC(=O)[C@@H](N)Cc1ccc(O)cc1)C(=O)O [DALLE] | 3.6 | 1.8 nM and 7.4 nM | – |
| H-YGGFMTSEKSQTPLVTLFKNAIVKNAHKKGQ-OH [Beta-Endorphin] | 21 | 14 nM and 58.1 nM | – |
| CN1CC[C@]23c4c5ccc(O)c4O[C@H]2[C@@H](O)CCC3[C@H]1C5 (stereo partly drawn) [DIHYDROMORPHINE] | – | 38.1 nM and 35.6 nM | 127 |
| CC(C)C[C@@H](NC(=O)[C@H](Cc1ccccc1)NC(=O)CNC(=O)[C@@H](C)NC(=O)[C@@H](N)Cc1ccc(O)cc1)C(=O)O [[D-Ala2-D-Leu5]enkephalin] | – | 1.8 nM and 9.7 nM | – |
